Test results: patent US20230339880A1, “COMPOSITIONS OF AJULEMIC ACID AND USES THEREOF” (priority 2019, published 2023)

Columns and labels:
Type in all cases: physicochemical
[1] = Thermodynamic solubility studies; settings: for Average Concentration: triplicate average; for Form by XRPD Dry: residual solids dried under vacuum; for Form by XRPD Wet: residual solids
Description: For each experiment, approximately 50 mg of either crystal form A or crystal form B was weighed into a 20 mL scintillation vial. 15 mL of the appropriate solvent system was added and the solution was stirred at 37° C. At approximately 7.5 h, a portion of the mother liquor was transferred to a pre-heated vial (at 37° C.) via syringe filter (0.45 μm). An aliquot of slurry was removed, and the solids in the aliquot were isolated by centrifugation and plated for XRPD analysis. The plated solids were stored in freezer for 12 h prior to analysis.
The remaining solution was further stirred at 37° C. overnight (approximately 25 h total stirring time). Stirring was then terminated and the solids were allowed to settle. After approximately 0.75 h, a portion of the mother liquor was transferred to a pre-heated vial (at 37° C.) via syringe filter (0.45 μm). The residual solids were isolated by centrifugation and analyzed by XRPD.
For “dry” analysis, the XRPD plates were dried under vacuum at ambient temperature for approximately 23 h and re-analyzed.

[2] = Dynamic Vapor Sorption (DVS)
Description: Approximately 10-20 mg of sample was placed into a mesh vapor sorption balance pan and loaded into a Surface Measurement Systems DVS Intrinsic dynamic vapor sorption balance. The material was subjected to a ramping profile from 40 to 90% relative humidity (RH) at 10% increments, maintaining the sample at each step until a stable weight had been achieved (dm/dt 0.004%, minimum step length 30 minutes, maximum step length 500 minutes) at 25° C. After completion of the sorption cycle, the sample was dried using the same procedure to 0% RH and then a second sorption cycle back to 40% RH was carried out. Two cycles were performed. The weight change during the sorption/desorption cycles were plotted, allowing the hygroscopic nature of the sample to be determined. XRPD analysis was then carried out on any solid retained.
Because this equilibration with ambient humidity is rapid, calculation or use of sufficiently accurate assay results on Form A material must take into account its current water content.

[3] = Thermogravimetric Analysis/Dynamic Temperature Analysis (TGA/DTA); settings: for TGA wt. loss: from the onset to about 210° C., heating 10° C./min
Description: Approximately 5-10 mg of material was weighed into an open aluminum pan and loaded into a TA Instruments SDT650 and held at room temperature. The sample was then heated at a rate of 10° C./min from 30° C. to 350° C. during which time the change in sample weight was recorded along with the heat flow response (DSC). Nitrogen was used as the purge gas, at a flow rate of 100 cm^3/min for both the sample and balance purges.

[4] = FaSSGF, after approximately 7.5 h at 37° C.
[5] = FaSSGF, after approximately 25 h at 37° C.
[6] = FaSSIF, after approximately 7.5 h at 37° C.
[7] = FaSSIF, after approximately 25 h at 37° C.
[8] = FeSSIF, after approximately 7.5 h at 37° C.
[9] = FeSSIF, after approximately 25 h at 37° C.
[10] = pH 6.1 media, after approximately 7.5 h at 37° C.
[11] = pH 6.1 media, after approximately 25 h at 37° C.
[12] = pH 6.8 media, after approximately 7.5 h at 37° C.
[13] = pH 6.8 media, after approximately 25 h at 37° C.
[14] = FaSSGF, approximately 7.5 h at 37° C.
[15] = FaSSGF, approximately 25 h at 37° C.
[16] = FeSSIF, approximately 7.5 h at 37° C.
[17] = FeSSIF, approximately 25 h at 37° C.
[18] = pH 6.1 media, approximately 25 h at 37° C.
[19] = pH 6.8 media, approximately 25 h at 37° C.

| SMILES | Average Concentration [1, 4] [µg/mL] | Average Concentration [1, 5] [µg/mL] | Average Concentration [1, 6] [µg/mL] | Average Concentration [1, 7] [µg/mL] | Average Concentration [1, 8] [µg/mL] | Average Concentration [1, 9] [µg/mL] | Average Concentration [1, 10] [µg/mL] | Average Concentration [1, 11] [µg/mL] | Average Concentration [1, 12] [µg/mL] | Average Concentration [1, 13] [µg/mL] | TGA wt. loss [3] [% wt.] | also measured |
| --- | --- | --- | --- | --- | --- | --- | --- | --- | --- | --- | --- | --- |
| CCCCCCC(C)(C)c1cc(O)c2c(c1)OC(C)(C)[C@@H]1CC=C(C(=O)O)C[C@@H]21 [crystal form A, (6aR,10aR)-1-hydroxy-6,6-dimethyl-3-(2-methyl-2-octanyl)-6a,7,10,10a-tetrahydro-6H-benzo[c]chromene-9-carboxylic acid] | 0.2 | 0.2 | 1063 | 391 | 335 | 227 | 3.0 | 2.0 | 18 | 14 | 0.7 | Form by XRPD Dry [1, 14]: A + trace B; Form by XRPD Dry [1, 15]: B + A; Form by XRPD Dry [1, 16]: A*; Form by XRPD Dry [1, 17]: (X) +; Form by XRPD Dry [1, 18]: A +; Form by XRPD Dry [1, 19]: A*; Form by XRPD Wet [1, 14]: A + trace B; Form by XRPD Wet [1, 15]: A + B; Form by XRPD Wet ([1]; FaSSIF, approximately 25 h at 37° C.): B +; Form by XRPD Wet [1, 16]: A*; Form by XRPD Wet [1, 17]: (X) +; Form by XRPD Wet [1, 18]: A + B; Form by XRPD Wet [1, 19]: A*; uptake of water by weight ([2]; at 90% RH, similar DVS studies): about 3.5%; TGA wt. loss ([3]; listed as Crystal Form A): 0.7 % wt. |
| CCCCCCC(C)(C)c1cc(O)c2c(c1)OC(C)(C)[C@@H]1CC=C(C(=O)O)C[C@@H]21 [crystal form B, (6aR,10aR)-1-hydroxy-6,6-dimethyl-3-(2-methyl-2-octanyl)-6a,7,10,10a-tetrahydro-6H-benzo[c]chromene-9-carboxylic acid] | 0.3 | 0.4 | 242 | 266 | 684 | 696 | 1.2 | 0.1 | 4.3 | 2.0 | 0.9 | water uptake ([2]; at 90% RH, 25° C.): circa 1 wt %; hygroscopic nature by DVS ([2]; ramping 40 to 90% RH, 25° C.): slightly hygroscopic; Post-DVS XRPD analysis ([2]; solid retained after two sorption/desorption cycles): no change in pattern; TGA wt. loss ([3]; listed as Crystal Form B): no significant mass loss; decomposition temperature by TGA/DTA ([3]; heating 10° C./min from 30° C. to 350° C.): ca. 285 °C |
